From patent publication US8283324B2, “Immunomodulatory and anti-tumour peptides” (Centro de Ingenieria Genetica y Biotecnologia, priority 2006, dated 2012)

Legend:
[1] = tested on: H-125 (non-small human ling cancer cells); assay: growth of tumor cells, crystal violet, H-125; format: cell-based; conditions: 9 μM to 300 μM, 72 h; FIG. 9
Procedure: For this assay, TC-1, H-125 (non-small human ling cancer cells) and L929) murine fibroblast) cells were seeded in 96-well culture plates (Costar) at a 2×10^4 cells/ml in Dulbecco's modified Eagle's medium (DMEM)(Gibco) supplemented with Calf Fetal Serum (Gibco). After 24 h, the peptides were added to the culture in a range of 9 μM to 300 μM. […] Plates were extensively washed with tap water and plates were read at 562 nm. A pro-apoptotic peptide with a marked anti-proliferative effect in vitro was employed as positive control (Perea, S., et al (2004) Antitumor Effect of a Novel Proapoptotic Peptide that Impairs the Phosphorylation by the Protein Kinase 2 Cancer Research 64: 7127-7129).

MB16-F10 tumor cells = assay: anti-tumoral effect in a melanoma model; format: in vivo, C57BI/6 female mice; conditions: 4 mg per kg
Procedure: Eight-to-ten weeks-old C57BI/6 female mice were used for this assay (n=10 animals per experimental group). For tumor graft, MB16-F10 tumor cells were used, being resuspended in phosphate-buffered saline (PBS). An amount of 15,000 cells were inoculated in a 200 μl volume by subcutaneous route in the right hind limb. After 4 days, the L-2 peptide was administered, with the second injection administered 7 after the first, and the third immunization was administered 14 days after. In this assay was evaluated a dose of 4 mg of peptide per kg of animal weight. Parameters evaluated to measure the anti-tumoral effect of the given peptide during this assay were the time of tumor grafting and the animal survival.

[2] = competition ELISA for LPS-binding capacity; design: species or system E. coli; conditions: competition with biotinylated LALF32-51 at 0.2 μM; analogous peptides 10 μM to 0.01 μM; FIG. 1A
Procedure: This assay consists on a competition ELISA system (Hardy E., et al (1994) Enhanced ELISA sensitivity using TCA for efficient coating of biologically active LPS or Lipid A to the solid phase. J. Immunol. Meth. Vol. 176:111-116). Polystyrene plates (Costar, USA) were coated with LPS from E. coli 0111:B4 (1 μg/ml) with 0.2% trichloroacetic acid (TCA). Plates were incubated overnight at 37° C. and further washed ten times with 1× phosphate-buffered saline (1×PBS) plus 0.1% tween-20 (washing solution). The binding of analogous peptides to the LPS fixed to the solid surface was evaluated by a competition ELISA with the biotinylated LALF32-51 peptide at 0.2 μM, obtaining a 90% of maximum LPS binding. To estimate the inhibition curves, different concentrations of the analogous peptides were used, from 10 μM to 0.01 μM and the curve of the LALF32-51 peptide as experimental control. The biotinylated LALF32-51 was incubated in the presence of the analogous peptides for 2 h at 37° C. and plates were washed 5 times after that time with washing solution. The biotinylated LALF32-51 bound to LPS was detected by incubating for 45 min at 37° C. with a streptavidin-peroxidase conjugate at a 1:2,000 dilution. Plates were washed 5 times with washing solution and the substrate solution was added (0.05 M citrate-phosphate buffer, pH 5.5, 1 tablet of 3,3′,5,5′-tetramethylbenzidine and 0.025% hydrogen peroxide). After 15 min incubation, the reaction was stopped by adding 2 M sulphuric acid. The absorbance was quantified at 450 nm in a plate reader (Sensident Scan). There is a correlation between optical density values and the LPS-binding capacity of analogous peptides. Analogous peptides with higher LPS-binding capacity show inhibition curves of lower O.D. compared to the inhibition curve of the LALF32-51 peptide.
Analogous peptides with lower LPS-binding capacity present inhibition curves with […], compared to the inhibition curve of the LALF32-51 peptide.
FIG. 1B represents the inhibition percentages of analogous peptides, at a fixed […] concentration, according to their capacity to displace the binding of the biotinylated LALF32-51 (0.2 μM) to LPS adsorbed to the solid surface. % de inhibición={1−(([O.D.]sample−[O.D.]min)/([O.D.]max−[O.D.]min))}×100 [O.D.] sample: Optical density value in the presence of a fixed concentration of analogous peptides; [O.D.] min: ELISA background; [O.D.] max: Optical density value without analogous peptides.

TC-1 cells = assay: double challenge schedule with TC-1 tumor cells; format: in vivo; conditions: second challenge, day 49 after the first challenge
Procedure: Animals without established tumors in the schedule of the previous example (n=6) were further challenged for a second time with 50,000 TC-1 cells in a 200 μl volume in PBS by subcutaneous route in the left hind limb (day 49 after the first challenge). The same amount of tumor cells were inoculated to “naïve” mice from the same litter as control group of the experiment, to guarantee the homogeneity in age, and were kept under the same conditions without receiving the peptide (n=10 animals). Parameters evaluated to measure the anti-tumoral effect of the L-2 peptide included the time of tumor grafting and animal survival.

IFN-γ gene = IFN-γ gene expression in human mononuclear cells (RT-PCR); format: cell-based; conditions: 40 μg/ml, 18 h; mRNA normalized against β-actin; FIG. 3A
Procedure: (§1) For this assay, human mononuclear cells were isolated by a Ficoll-Hypaque gradient from a leukocyte concentrate or “Buffy Coat” of a donor. Up to 5×10^6 were seeded in 24-well plates in RPMI 1640 medium supplemented with 10% calf fetal serum. Each peptide was further added at 40 μg/ml in a 0.1 ml volume of RPMI medium and cells were cultured for 18 h at 37° C. and 5% of CO2. Total RNA was extracted by using the TriReagent method. Afterwards, the expressions of IFN-α, IFN-γ and IL-12 genes were determined by the reverse transcription reaction and PCR amplification (RT-PCR kit, Perkin Elmer). Results are shown as relative amounts of messenger RNA normalized against expression levels of the β-actin housekeeping gene.

IL-12 gene = IL-12 gene expression in human mononuclear cells (RT-PCR); format: cell-based; conditions: 40 μg/ml, 18 h; mRNA normalized against β-actin; FIG. 3A
Procedure: as §1

Sequence: HARIKPTFRRLKWKYKGKFW [Peptide L-2, alanine-substituted analogue of LALF 32-51]
- anti-proliferative effect [1]: dose-dependent anti-proliferative effect
- time of tumor grafting (MB16-F10 tumor cells; three administrations starting after 4 days, Log Rank *p<0.05, FIG. 5A): significantly delayed tumor grafting
- animal survival (MB16-F10 tumor cells; three administrations, Log Rank *p<0.05, FIG. 5B): significantly increased the survival of animals
- animal survival compared to the LALF32-51 peptide (MB16-F10 tumor cells; FIG. 5B): more effective than the LALF32-51 peptide
- LPS-binding capacity [2]: lose the capacity to bind LPS
- time of tumor grafting (TC-1 cells; FIG. 7A): retarding the establishment of the tumor
- animal survival (TC-1 cells; FIG. 7B): increasing animal survival
- expression of the IFN-γ gene (IFN-γ gene): capable of inducing the expression
- expression of the IL-12 gene (IL-12 gene): capable of inducing the expression
